# According to patent publication US20030013660A1, “Dioxolane analogs for improved inter-cellular delivery” (Shire BioChem Inc., priority 2000, published 2003):
# Several values for one entry are separate records, joined by “and”; a condition that tells them apart may be missing. Equal entries are not always repeated. Where two headings read alike, the source gives them in different places.
# Assays:
# CEM/dCK- [1] = assay: 3H-TdR incorporation at 72 hr (24 hr drug exposure, wash, 48 hr); type: cell-based; details: for IC50: 24 h drug exposure, 72 hr assay
# Procedure: (§1) Exposition of 24 hr to drug, wash, incubated for another 48 hr (total of 72 hr assay)
# (§2) (3H-Thymidine Incorporation Assay)
# MCF-7 = assay: as above; type: cell-based, Human
# Procedure: as §1, §2
# H-460 [2] = assay: as above; type: cell-based, Human
# Procedure: as §1, §2
# SF-268 = assay: as above; type: cell-based, Human; details: 24 h drug exposure, 72 hr assay
# Procedure: as §1, §2
# CCRF-CEM [3] = assay: as above; type: cell-based; details: read-out: IC50 in μM (3H-TdR incorporation at 72 hr) CCRF-CEM 24 h, CCRF-CEM T-cell Leukemia, 72 hr assay
# Procedure: as §1, §2
# H-460 [4] = assay: 3H-TdR (3H-thymidine) incorporation assay at 72 hr; type: cell-based, Human; details: 3H-TdR incorporation at 72 hr
# CEM/dCK- [5] = assay: 3H-TdR (3H-thymidine) incorporation assay at 72 hr; type: cell-based; details: Homo sapiens, CCRF-CEM, read-out: IC50 CEM/dCK- 24 h, 24 h drug exposure, wash, another 48 hr; deoxycytidine kinase-deficient CCRF-CEM
# Procedure: (§3) Table of IC50 Values (μM) for Controls
# as §1, §2
# CCRF-CEM [6] = assay: 3H-TdR (3H-thymidine) incorporation assay at 72 hr; type: cell-based; details: 3H-TdR incorporation at 72 hr
# Procedure: as §3, §1, §2
# [7] = Homo sapiens, CCRF-CEM, read-out: IC50 in μM (3H-TdR incorporation at 72 hr) CEM/dCK- 24 h, CCRF-CEM deoxycytidine kinase-deficient
# [8] = Homo sapiens, MCF7, read-out: IC50 in μM (3H-TdR incorporation at 72 hr) MCF-7 24 h, MCF-7 Human Breast Carcinoma, 72 hr assay
# [9] = Homo sapiens, NCI-H460, read-out: IC50 in μM (3H-TdR incorporation at 72 hr) H-460 24 h, H-460 Human Lung Carcinoma, 72 hr assay
# [10] = Homo sapiens, SF-268, read-out: IC50 in μM (3H-TdR incorporation at 72 hr) SF-268 24 h, SF-268 Human Central Nervous System Tumor
# [11] = read-out: IC50 in μM (3H-TdR incorporation at 72 hr) CEM/dCK- 24 h, CCRF-CEM deoxycytidine kinase-deficient
# [12] = read-out: IC50 in μM (3H-TdR incorporation at 72 hr) MCF-7 24 h, MCF-7 Human Breast Carcinoma, 72 hr assay
# [13] = read-out: IC50 in μM (3H-TdR incorporation at 72 hr) SF-268 24 h, SF-268 Human Central Nervous System Tumor
# [14] = read-out: IC50 in μM (3H-TdR incorporation at 72 hr) H-460 24 h, H-460 Human Lung Carcinoma, 72 hr assay
Compound,IC50 (CEM/dCK- [1]; [7]) [µM],IC50 (MCF-7; [8]) [µM],IC50 (H-460 [2]; [9]) [µM],IC50 (SF-268; [10]) [µM],"IC50 (CCRF-CEM [3]; Homo sapiens, CCRF-CEM) [µM]",IC50 (CCRF-CEM [3]),IC50 (MCF-7; [12]),further results
"CC(C)(C)C(=O)Oc1ccc(COC(=O)Nc2ccn([C@@H]3CO[C@H](CO)O3)c(=O)n2)cc1 [Compound 213, 2,2-DIMETHYL-PROPIONIC ACID 4-[1-(2- HYDROXYMETHYL- [1,3]DIOXOLAN-4-YL)-2- OXO-1,2-DIHYDRO- PYRIMIDIN-4- YLCARBAMOYLOXYMETHYL]- PHENYL ESTER]",1.1,0.00027,≤ 0.0001,0.012,–,–,–,–
"CCCCCCc1ccc(C(=O)OC[C@H]2OC[C@@H](n3ccc(N)nc3=O)O2)cc1 [Compound 191, 4-HEXYL-BENZOIC ACID 4- (4-AMINO-2-OXO-2H- PYRIMIDIN-1-YL)- [1,3]DIOXOLAN-2-YL METHYL ESTER]",–,< 0.0001,< 0.0001,< 0.0001,< 0.0001,–,–,–
"CCC(CC)(CCCCCCc1ccccc1)C(=O)OC[C@H]1OC[C@@H](n2ccc(N)nc2=O)O1 [Compound 233, 2,2-DIETHYL-8-PHENYL- OCTANOIC ACID 4-(4- AMINO-2-OXO-2H- PYRIMIDIN-1-YL)- [1,3]DIOXOLAN-2-YL METHYL ESTER]",18,13,–,12,11,9.7 µM,9.6 µM and 11 µM,IC50 (CEM/dCK- [1]; [11]): 22 µM; IC50 (SF-268; [13]): 17 µM and 15 µM
"O=C(Nc1ccn([C@@H]2CO[C@H](CO)O2)c(=O)n1)C12C[C@@H]3C[C@@H](C[C@@H]1C3)C2 (stereo in doubt) [Compound 231, Hexahydro-2,5-Methano-Pentalene-3A-Carboxylic Acid [1-(2-Hydroxymethyl-[1,3]Dioxolan-4-Yl)-2-Oxo-1,2-Dihydro-Pyrimidin-4-Yl]-Amide]",> 100,–,–,1.1,0.076,–,–,–
"O=c1nc(NCNc2ccccc2)ccn1[C@@H]1CO[C@H](CO)O1 [Compound 172, 1-(2-HYDROXYMETHYL- [1,3]DIOXOLAN-4-YL)-4- (PHENYLAMINOMETHYL- AMINO)-1H-PYRIMIDIN-2- ONE]",–,0.019,0.014,–,0.0074,0.0085 µM,0.036 µM,IC50 (H-460 [2]; [14]): 0.015 µM
"CC(C)(C)OC(=O)N(CCCCCCNC(=O)OC[C@H]1OC[C@@H](n2ccc(N)nc2=O)O1)Cc1ccccc1 [Compound 214, {6-[4-(4-AMINO-2-OXO- 2H-PYRIMIDIN-1-YL)- [1,3]DIOXOLAN-2- YLMETHOXYCARBONYLAMINO]-HEXYL}-BENZYL-CARBAMIC ACID TERT-BUTYL ESTER]",> 100,9.4,9.4,89,–,–,–,–
"Nc1ccn([C@@H]2CO[C@H](COC(=O)c3ccc(Cl)c(Cl)c3)O2)c(=O)n1 [Compound 187, 3,4-DICHLORO-BENZOIC ACID 4-(4-AMINO-2-OXO- 2H-PYRIMIDIN-1-YL)- [1,3]DIOXOLAN-2-YL METHYL ESTER]",–,–,–,–,–,0.0017 µM,0.0042 µM,IC50 (H-460 [2]; [14]): 0.0014 µM
"COc1ccc(C(=O)OC[C@H]2OC[C@@H](n3ccc(N)nc3=O)O2)cc1 [Compound 176, 4-METHOXY-BENZOIC ACID 4-(4-AMINO-2-OXO-2H- PYRIMIDIN-1-YL)- [1,3]DIOXOLAN-2- YLMETHYL ESTER]",38,–,0.04,0.057,0.014,0.011 µM,–,IC50 (CEM/dCK- [1]; [11]): 68 µM; IC50 (H-460 [2]; [14]): 0.043 µM; IC50 (SF-268; [13]): 0.032 µM
"O=c1nc(NS(=O)(=O)c2ccc([N+](=O)[O-])cc2)ccn1[C@@H]1CO[C@H](CO)O1 [Compound 168, N-[1-(2-HYDROXYMETHYL- [1,3]DIOXOLAN-4-YL)-2- OXO-1,2-DIHYDRO- PYRIMIDIN-4-YL]-4- NITRO- BENZENESULFONAMIDE]",> 100,–,–,–,31,22 µM and 20 µM,–,–
"O=C(Nc1ccn([C@@H]2CO[C@H](CO)O2)c(=O)n1)C1(c2ccccc2)CCCC1 [Compound 229, 1-PHENYL- CYCLOPENTANECARBOXYLIC ACID [1-(2- HYDROXYMETHYL- [1,3]DIOXOLAN-4-YL)-2- OXO-1,2-DIHYDRO- PYRIMIDIN-4-YL]-AMIDE]",> 100,15,13,–,11,–,18 µM,Factor* (Resistance Factor = Ratio of dCK- on Wild-type CCRF-CEM) (CEM/dCK- [1]; ratio of IC50 CEM/dCK- to IC50 CCRF-CEM): >9; IC50 (H-460 [2]; [14]): 14 µM
"Nc1ccn([C@@H]2CO[C@H](COC(=O)c3ccccc3-c3ccccc3)O2)c(=O)n1 [Compound 209, BIPHENYL-2-CARBOXYLIC ACID 4-(4-AMINO-2-OXO- 2#H!-PYRIMIDIN-1-YL)- [1,3]DIOXOLAN-2-YL METHYL ESTER]",> 100,1.3,0.31,0.59,–,–,–,–
"Nc1ccn([C@@H]2CO[C@H](COC(=O)CCCCCCCc3ccccc3)O2)c(=O)n1 [Compound 198, 8-PHENYL-OCTANOIC ACID 4-(4-AMINO-2-OXO-2H- PYRIMIDIN-1-YL)- [1,3]DIOXOLAN-2-YL METHYL ESTER]",–,–,< 0.0001,< 0.0001,< 0.0001,–,–,–
"Cc1cccc(C)c1C(=O)OC[C@H]1OC[C@@H](n2ccc(N)nc2=O)O1 [Compound 162, 1-[2-(2,6-DIMETHYL- BENZOYLOXYMETHYL)- [1,3]DIOXOLAN-4-YL]-2- OXO-1,2-DIHYDRO PYRIMIDIN-4-YL- AMMONIUM; CHLORIDE]",> 100,5.7,–,12,3.3,4.1 µM,3.6 µM,"IC50 (H-460 [4]; Homo sapiens, NCI-H460, read-out: IC50 H-460 24 h, 24 h drug exposure, wash, another 48 hr): 8.4 µM; IC50 (H-460 [4]; read-out: IC50 H-460 24 h, 24 h drug exposure, wash, another 48 hr): 6.4 µM; IC50 (SF-268; [13]): 17 µM; IC50 (CEM/dCK- [5]): > 100 µM; IC50 (CCRF-CEM [6]; Homo sapiens, CCRF-CEM, read-out: IC50 CCRF-CEM 24 h, 24 h drug exposure, wash, another 48 hr): 2200 nM; IC50 (CCRF-CEM [6]; read-out: IC50 CCRF-CEM 24 h, 24 h drug exposure, wash, another 48 hr): 2800 nM"
"CCCCC(CC)(CC)C(=O)OC[C@H]1OC[C@@H](n2ccc(N)nc2=O)O1 [Compound 218, 2,2-DIETHYL-HEXANOIC ACID 4-(4-AMINO-2-OXO- 2H-PYRIMIDIN-1-YL)- [1,3]DIOXOLAN-2-YL METHYL ESTER]",60,0.052,0.0091,0.081,–,–,–,–
"Nc1ccn([C@@H]2CO[C@H](COC(=O)NCCCc3ccccc3)O2)c(=O)n1 [Compound 215, (3-PHENYL-PROPYL)- CARBAMIC ACID 4-(4- AMINO-2-OXO-2H- PYRIMIDIN-1-YL)- [1,3]DIOXOLAN-2-YL METHYL ESTER]",> 100,33,3.9,96,–,–,–,–
"CC(C)(C)C(=O)Oc1ccc(COC(=O)Nc2ccn([C@@H]3CO[C@H](COC(=O)OCc4ccc(OC(=O)C(C)(C)C)cc4)O3)c(=O)n2)cc1 [Compound 212, 2,2-Dimethylpropionic Acid 4-(1-{2-[4-(2,2-dimethylpropionyloxy)benzyloxy Carbonyloxymethyl]-[1,3]dioxolan-4-yl}-2-oxo-1,2-dihydropyrimidin-4-ylcarbamoyloxymethyl)-phenyl Ester]",3.5,0.00059,0.00011,0.018,–,–,–,–
